Experimental data from patent publication US5028733A, “Prostaglandins” (National Research Development Corporation, priority 1980, dated 1991).

Tests used:
Assay type in all cases: cell-based
human platelets = target: T1, human platelets (Homo sapiens, UniProt P21731); assay: Human platelet system, antagonism of aggregation by 11,9-(epoxymethano) PGH2 (affinity constant KB); settings: for Kb: vs 11,9-(epoxymethano) PGH2, compound added 5 min before, Gaddum-Schild, read-out: Affinity Constants, Human Platelets (KB) (converted)
T1 construct: Platelet-rich plasma is obtained from fresh, citrated human blood; endogenous in cells; host or cells: human platelets in platelet-rich plasma
T1 sequence (P21731 1-343): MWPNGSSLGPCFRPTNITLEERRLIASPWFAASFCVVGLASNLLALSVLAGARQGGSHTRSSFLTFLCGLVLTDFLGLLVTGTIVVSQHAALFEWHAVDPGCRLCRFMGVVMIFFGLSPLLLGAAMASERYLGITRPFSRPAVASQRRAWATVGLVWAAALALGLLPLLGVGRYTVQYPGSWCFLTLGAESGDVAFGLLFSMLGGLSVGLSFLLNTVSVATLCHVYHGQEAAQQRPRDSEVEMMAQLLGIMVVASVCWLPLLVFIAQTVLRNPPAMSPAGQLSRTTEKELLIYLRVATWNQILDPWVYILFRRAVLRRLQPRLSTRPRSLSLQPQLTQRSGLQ
Procedure: Platelet-rich plasma is obtained from fresh, citrated human blood. Addition of the 11,9-(epoxymethano) PGH2 (1×10^-7 to 5×10^-7 M) causes immediate aggregation recorded as an increase in light transmission (600 nm). In a second experiment the individual compounds are added five minutes previous to the addition of the PGH2 analogue. The dose of the PGH2 analogue added is then increased to a level which gives a similar response to that obtained in the absence of antagonist. The affinity constant, KB, for the compound is calculated according to the Gaddum - Schild Equation (based on Law of Mass Action).
(§1) [B]=molar concentration of compound

rabbit aorta [1] = assay: Rabbit aorta strip, antagonism of contraction by 11,9-(epoxymethano) PGH2 (affinity constant KB); settings: for Kb: vs 11,9-(epoxymethano) PGH2, 37° C, compound added 30 min before, Gaddum-Schild, read-out: Affinity Constants, Rabbit Aorta (KB) (converted)
Procedure: Spiral strips of thoracic aorta are suspended in Kreb's-Henseleit solution and aerated with 95% O2 /5% CO2 at 37° C. Tension changes are recorded with a Glass FTO3 force transducer. Initially, cumulative dose response curves to 11,9-(epoxymethano) PGH2 (2×10^-9, 1×10^-8, 5×10^-8 and 2.5×10^-7 M) are obtained. In a second experiment the individual compounds are added 30 minutes previous to the addition of the series of agonist doses. In the case of each compound, the affinity constant, KB, for the compound is calculated according to the Gaddum - Schild Equation (based on Law of Mass Action).
as §1

rabbit aorta [2] = assay: Block of the contractile action of noradrenaline in the rabbit aorta strip test; settings: in words
platelet = assay: Block of the aggregatory action of arachidonic acid on platelets; settings: in words

Compound	Kb (human platelets) [nM]	Kb (rabbit aorta [1]) [nM]	further results
CC1(C)[C@H]2C[C@H](C=NNC(=S)Nc3ccccc3)[C@@H](C/C=C\CCCC(=O)O)[C@@H]1C2	2860	1670	
CC(=NNC(=O)Nc1ccccc1)[C@H]1C[C@H]2C[C@@H]([C@@H]1C/C=C\CCCC(=O)O)C2(C)C	909	357	
O=C(O)CCCC=CCC1C(O)CCC1C=NOCc1ccc(F)cc1 (centres unmarked)		2500	
O=C(O)CCC/C=C\C[C@H]1C2CCC(CC2)[C@@H]1C=NNC(=O)Nc1ccccc1 (relative stereo)		833	
COc1ccc(NC(=O)NN=C(C)[C@H]2C3CCC(CC3)[C@@H]2C/C=C\CCCC(=O)O)cc1 (relative stereo)	55.6	55.6	
CC(=NNC(=S)Nc1ccccc1)[C@H]1C2CCC(CC2)[C@@H]1C/C=C\CCCC(=O)O (relative stereo)	47.6	83.3	
CC(=NNC(=S)Nc1cccnc1)[C@H]1C2CCC(CC2)[C@@H]1C/C=C\CCCC(=O)O (relative stereo)	667	256	
O=C(O)CCC/C=C\C[C@H]1[C@H]2CC[C@H](C2)[C@@H]1C=NN=C(c1ccccc1)c1ccccc1 (relative stereo)		667	
O=C(O)CCC/C=C\C[C@H]1[C@H]2CC[C@H](C2)[C@@H]1C=NNC(=O)CN(Cc1ccccc1)Cc1ccccc1 (relative stereo)		833	
O=C(O)CCC/C=C\C[C@H]1[C@H]2CC[C@H](C2)[C@@H]1C=NOCCOC(c1ccccc1)c1ccccc1 (relative stereo)	4350	10000	
O=C(O)CCC/C=C\C[C@@H]1CC=CC[C@H]1C=NOCc1ccc(F)cc1 (relative stereo)	8330	385	
O=C(O)CCC/C=C\C[C@H]1[C@H]2CC[C@H](C2)[C@@H]1C=NNC(=S)NCc1ccccc1 (relative stereo) [Example 1, 5-endo-(6'-Carboxyhex-2'Z-enyl)-6-exo-[N-(benzylthiocarbamoyl)-hydrazonomethyl]-bicyclo [2,2,1] heptane]			contractile action of noradrenaline (α-adrenoceptors) (rabbit aorta [2]): do not block the contractile action of noradrenaline; antagonist in the platelet test (human platelets; in words): antagonists in the platelet test; antagonist in the rabbit aorta strip test (rabbit aorta [1]; in words): pure antagonists in the rabbit aorta strip test; aggregatory action of arachidonic acid (platelet): block the aggregatory action of arachidonic acid
CC1(C)[C@H]2C[C@H](C/C=C\CCCC(=O)O)C(C=NNC(=O)Nc3ccccc3)[C@@H]1C2 (single isomer, unassigned)	2000	333	

Continued, in another order:

Kb (human platelets) [nM]	Compound	Kb (rabbit aorta [1]) [nM]	further results
263	O=C(O)CCC/C=C\C[C@H]1[C@H]2CC[C@H](C2)[C@@H]1C=NNC(=S)Nc1ccccc1 (relative stereo)	526	
45.5	CC(=NNC(=S)Nc1cccc(F)c1)[C@H]1[C@@H]2CC[C@@H](C2)[C@@H]1C/C=C\CCCC(=O)O (relative stereo)	70.4	
118	COc1cccc(NC(=S)NN=C(C)[C@H]2[C@@H]3CC[C@@H](C3)[C@@H]2C/C=C\CCCC(=O)O)c1 (relative stereo)	95.2	
102	COc1ccc(NC(=S)NN=C(C)[C@H]2[C@@H]3CC[C@@H](C3)[C@@H]2C/C=C\CCCC(=O)O)cc1 (relative stereo)	213	
189	CC(=NNC(=S)Nc1cccc(C(F)(F)F)c1)[C@H]1[C@@H]2CC[C@@H](C2)[C@@H]1C/C=C\CCCC(=O)O (relative stereo)	118	
500	O=C(O)CCC/C=C\C[C@@H]1CC=CC[C@H]1C=NNC(=S)Nc1ccccc1 (relative stereo)	1100	
3450	Cn1c(=NN=C[C@H]2[C@@H]3CC[C@@H](C3)[C@@H]2C/C=C\CCCC(=O)O)sc2ccccc21 (relative stereo)	1520	
5560	O=C(O)CCC/C=C\C[C@H]1[C@H]2CC[C@H](C2)[C@@H]1C=NNc1nc2ccccc2o1 (relative stereo)	500	
667	Cc1ccc(S(=O)(=O)NN=C[C@H]2[C@@H]3CC[C@@H](C3)[C@@H]2C/C=C\CCCC(=O)O)cc1 (relative stereo)	345	
256	CCC(=NNC(=S)Nc1ccccc1)[C@H]1[C@@H]2CC[C@@H](C2)[C@@H]1C/C=C\CCCC(=O)O (relative stereo) [Example 3, 5-endo-(6'-Carboxyhex-2'Z-enyl)-6-exo-{1'-[N-(phenylthiocarbamoyl)-hydrazono]-propyl}-bicyclo [2,2,1] heptane]		
1280	O=C(O)CCC/C=C\C[C@H]1[C@H]2CC[C@H](C2)[C@@H]1C=NNC(=S)NCc1ccccc1 (relative stereo) [drawing 41]	526	
50	CC(=NNC(=S)Nc1ccccc1)[C@H]1[C@@H]2CC[C@@H](C2)[C@@H]1C/C=C\CCCC(=O)O (relative stereo) [drawing 42]	90.9	
